Results: patent publication US9688765B2, “Methods using RANK/RANKL antagonist antibodies for treating pain” (Antecip Bioventures II LLC, priority 2014, dated 2017)

Key:
RANKL expression = details: cultured bone marrow stromal cell line; cited from earlier work
[1] = test system: arthritis pain (mechanical hyperalgesia); test: Rat complete Freund's adjuvant (CFA) model of arthritis pain; format: in vivo; details: day 14 post CFA
Method: The effect of RANK/RANKL antagonism on arthritis pain was examined in the rat complete Freund's adjuvant (CFA) model of arthritis pain. In this model, injection of 100% complete Freund's adjuvant (CFA) in a 75 μL volume into the left hind paws is followed by a 10-14 day period to allow for the development of arthritis pain. Animals were orally administered zoledronic acid 9 mg/kg (or 54 mg/m^2), or zoledronic acid 60 mg/kg (or 360 mg/m^2) to produce RANK/RANKL antagonism, divided in three equal daily doses on the first three days post CFA injection, or vehicle (control). Drug was dissolved in distilled water and prepared fresh daily. Animals were fasted prior to dosing.
Arthritis pain (mechanical hyperalgesia) in the vehicle and drug-treated animals was evaluated on day 14 post CFA injection using a digital Randall-Selitto device (dRS; IITC Life Sciences, Woodland Hills, Calif.). […] Paw compression threshold was measured by applying increasing pressure to the plantar surface of the hind paw with a dome-shaped tip placed between the 3rd and 4th metatarsus. […]
Reversal of arthritis pain in the ipsilateral (CFA-injected) paw was calculated according to the formula: % reversal=(ipsilateral drug threshold−ipsilateral vehicle threshold)/(contralateral vehicle threshold−ipsilateral vehicle threshold)×100. […]

neuropathic pain = test: Treatment of patient suffering from neuropathic pain; format: in vivo, human; details: patient one, 60 mg subcutaneously, within 6 months after treatment
Method: PROLIA® (denosumab, 60 mg) is administered subcutaneously to a patient suffering from neuropathic pain. […] The injection is repeated every six months.

low back pain = test: Treatment of patient suffering from low back pain; format: in vivo, human; details: patient two, 60 mg subcutaneously, within 6 months after treatment
Method: PROLIA® (denosumab, 60 mg) is administered subcutaneously to a patient suffering from low back pain. […] The injection is repeated every six months. IMBRUVICA® (ibrutinib, 420 mg taken orally once daily (three 140 mg capsules once daily)) is administered to a patient suffering from low back pain. […] IMBRUVICA® (ibrutinib, 560 mg taken orally once daily, (four 140 mg capsules once daily)) is administered to a patient suffering from low back pain.

[2] = test system: pain associated with arthritis; test: Treatment of patient suffering from pain associated with arthritis; format: in vivo, human; details: patient two, 60 mg subcutaneously, within 6 months after treatment
Method: PROLIA® (denosumab, 60 mg) is administered subcutaneously to a patient suffering from pain associated with arthritis. […] IMBRUVICA® (ibrutinib, 420 mg taken orally once daily (three 140 mg capsules once daily)) is administered to a patient suffering from pain associated with arthritis. […] IMBRUVICA® (ibrutinib, 560 mg taken orally once daily, (four 140 mg capsules once daily)) is administered to a patient suffering from pain associated with arthritis.

[3] = test system: pain associated with osteoarthritis; test: Treatment of patient suffering from pain associated with osteoarthritis; format: in vivo, human; details: patient one, 60 mg subcutaneously, within 6 months after treatment
Method: PROLIA® (denosumab, 60 mg) is administered subcutaneously to a patient suffering from pain associated with osteoarthritis. […] The injection is repeated every six months. IMBRUVICA® (ibrutinib, 420 mg taken orally once daily (three 140 mg capsules once daily)) is administered to a patient suffering from pain associated with osteoarthritis. […] IMBRUVICA® (ibrutinib, 560 mg taken orally once daily, (four 140 mg capsules once daily)) is administered to a patient suffering from pain associated with osteoarthritis.

[4] = test system: complex regional pain syndrome; test: Treatment of patient suffering from complex regional pain syndrome; format: in vivo, human; details: patient one, 60 mg subcutaneously, within 6 months after treatment
Method: PROLIA® (denosumab, 60 mg) is administered subcutaneously to a patient suffering from complex regional pain syndrome. […] The injection is repeated every six months.

## O=P(O)(O)C(O)(Cc1cnc2ccccn12)P(=O)(O)O [Minodronic acid, minodronic acid]
RANKL expression
  RANKL expression: inhibit[] RANKL expression

## O=P(O)(O)C(O)(Cn1ccnc1)P(=O)(O)O [zoledronic acid]
[1]; oral 9 mg/kg (54 mg/m^2) total in three daily doses
  reversal of arthritis pain: 33%
[1]; oral 60 mg/kg (360 mg/m^2) total in three daily doses
  reversal of arthritis pain: 54%

## denosumab [PROLIA]
Neuropathic pain
  pain experienced by patient: less pain
Low back pain
  pain experienced by patient: less pain
[2]
  pain experienced by patient: less pain
[3]
  pain experienced by patient: less pain
[4]
  pain experienced by patient: less pain
